Experimental data published in PMC6344531, “Discovery and evaluation of inhibitor of LARP6 as specific antifibrotic compound” (Scientific Reports, 2019).

Molecular target: T1, LARP6 (Homo sapiens, UniProt Q9BRS8)
T1 construct: LARP6*, amino-acids 72–303, His-tag
T1 sequence (Q9BRS8 72-303): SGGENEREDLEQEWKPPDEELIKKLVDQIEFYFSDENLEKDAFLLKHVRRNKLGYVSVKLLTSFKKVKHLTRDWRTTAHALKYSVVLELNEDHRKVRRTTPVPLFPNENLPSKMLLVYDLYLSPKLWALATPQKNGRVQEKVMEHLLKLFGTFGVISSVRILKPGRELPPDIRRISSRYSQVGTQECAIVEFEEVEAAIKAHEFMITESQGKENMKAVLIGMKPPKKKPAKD
Test: FP dissociation of LARP6* from fluorescein-labelled […]'SL RNA; intrinsic tryptophan fluorescence quenching of LARP6*; gel mobility shift with extracts of treated cells
Assay type: binding

IC50: ~15 µM
SMILES: Cc1cccn2c(=O)c3cc(C(=O)Nc4cccnc4)n(C)c3nc12 [C9]
